For this experiment, the system named is CEM cells HIV-1 protection, formazan growth assay. The experiment can be described thus: NCI AIDS Antiviral Assay. The conditions noted are these: for IC50: measured here: growth of uninfected CEM cells. The procedure, abridged: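 Soluble formazan readout of cell growth; CEM cells ± HIV-1; 5 drug concs. ≥50% protection → retest; ≥50% again = moderately active; reproducible 100% = confirmed active.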

The structures appear in SMILES notation. Where “and” joins values, the source holds several entries; their conditions need not be identical. Equal values may be shown once. Calls of active or inactive are those of the source.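 The calls were made as follows: active = compounds giving half or more protection of infected cells from virus-caused growth loss, again on retest; inactive = the rest.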 Where a SMILES comes first, the peptide text is derived from it. The star is where a group is joined. Boc = CC(C)(C)OC(=O)*

In the case of `CC1=CCCC2C1(C)CCC(C)C2(C)Cc1cc(O)ccc1O` (stereo unspecified), the EC50 (in general, the concentration at which the effect is half-maximal) was above 100 µM and the IC50 (as a rule, the midpoint of a concentration-inhibition curve) was found to be 12 µM.

On to `c1ccc(CCC[P+](c2ccccc2)(c2ccccc2)c2ccccc2)cc1`, for which the EC50 is above 200 µM and the IC50 amounted to 0.692 µM.

Regarding `Oc1c(N2CCOCC2)cc(-c2cc(N3CCOCC3)c(O)c3ccccc23)c2ccccc12`, the EC50 is above 26.3 µM and the IC50 amounted to 3.63 µM.

Regarding `CCOc1cc2c(c(OCC)c1O)CC[C@@H]1[C@@H]2CC[C@]2(C)[C@@H](O)CC[C@@H]12`, the EC50 was above 2 µM and the IC50 amounted to 0.776 µM.

Turning to `Cc1ccc(N=Nc2c(N)nn3cc4c(nc23)CCC4)cc1`, the EC50 was above 200 µM and the IC50 is above 200 µM.

Consider `[N-]=[N+]=NC12CC3CC(CC(C3)C1)C2`, for which the EC50 was above 380 µM and the IC50 is above 380 µM.

Turning to `CC(=O)Nc1ccc(CNc2cc(=O)n(C)c(=O)[nH]2)cc1`, the EC50 was above 200 µM and the IC50 is above 200 µM.

Regarding `Cc1ccc(C(=O)Nc2ccc(CP(=O)(O)O)cc2CP(=O)(O)O)cc1NC(=O)Nc1cc(C(=O)Nc2ccc(CP(=O)(O)O)cc2CP(=O)(O)O)ccc1C`, the EC50 was above 200 µM and the IC50 is above 200 µM.

With `COC1/C=C\C=C(/C)C(=O)NC2=CC(=O)C=C(C2=O)C(OC)C(C)CC(OC)C(OC)C(C)/C=C(/C)C1OC(N)=O` (stereo unspecified), the EC50 was above 63.1 µM and the IC50 was found to be 0.407 µM.

For the compound `CC(=O)Nc1sccc1S(=O)(=O)c1ccc(Cl)cc1`, the EC50 is above 200 µM and the IC50 was above 200 µM.

As to `COc1cc(/C=C2/C(=O)N=C(NC(C)=O)N2C)ccc1OC(C)=O`, the EC50 was above 200 µM and the 50% inhibitory concentration (IC50) is above 200 µM.

As to `O=C(O)CN1CCN2CCCCCN(CC1)CCN(CC(=O)O)CC2`, the EC50 is above 200 µM and the IC50 worked out at 12.6 µM.

As to `O=C(O)CCC1NC(/C(=C/c2ccccc2O)NC(=O)c2ccccc2)OC1=O` (stereo unspecified), the EC50 is above 151 µM and the IC50 is above 151 µM.

In the case of `Cc1oc2c(c(=O)c1C)CN(Cc1ccccc1)CC2`, the EC50 was above 331 µM and the IC50 is 275 µM.

In the case of `Clc1ccc(-c2onc3ccc(Br)cc23)cc1`, the EC50 was above 162 µM and the IC50 is above 162 µM.

For `O=C(CCc1cccc(O)c1)NCCc1cccc(O)c1`, the EC50 was above 200 µM and the IC50 is above 200 µM.

For `Oc1ccc(C[C@@H]2CN[C@H](Cc3ccc(O)c(Br)c3)CN2)cc1`, the EC50 is above 200 µM and the IC50 was above 200 µM.

As for `CC12CCCC1C1CC=C3CC(SC4CCC5(C)C(=CCC6C7CCCC7(C)CCC65)C4)CCC3(C)C1CC2` (stereo unspecified), the EC50 was above 200 µM and the IC50 is above 200 µM.

Take `CC(=O)OCC1OC(NC(=S)N/N=C2\CC(c3ccccc3)Oc3ccccc32)C(OC(C)=O)C(OC(C)=O)C1OC(C)=O` (stereo unspecified): the outcome was inactive.

Regarding `NC(CSSCC(N)C(=O)NCC(=O)O)C(=O)NCC(=O)O` (stereo unspecified), the EC50 was above 708 µM.

`Cc1c(N(C)C)ccc2c(=O)c3cccc(CC(=O)O)c3oc12`: the EC50 is above 741 µM and the IC50 was found to be 282 µM.

Take `Cc1ccc(S(=O)(=O)c2c(N)n(CCN(C)C)c3nc4ccccc4nc23)cc1`: the EC50 is above 200 µM and the IC50 was above 200 µM.

`NC(=O)C(F)(Cc1ccccc1)C(=O)O` (stereo unspecified): the EC50 was above 200 µM and the IC50 is above 200 µM.

As for `Cc1ccc(CC(Cc2ccc(C)cc2C(=O)O)C(=O)O)cc1` (stereo unspecified), the EC50 was above 200 µM and the IC50 is above 200 µM.

With `Nc1ccc(C2=NC(C(=O)O)C=C2)cc1` (stereo unspecified), the EC50 is above 200 µM and the IC50 was above 200 µM.

Turning to `Cc1ccccc1C1=[N+]([O-])c2ccccc2C1=O`, the result was inactive.

As to `CCOC(=O)Cc1ccc2c(c1O)C(=O)c1c(ccc(CC(=O)OCC)c1O)C2=O`, the outcome was inactive.

`OC1(c2ccc(Cl)cc2)c2ccccc2C2=NCc3ccccc3CN21` (stereo unspecified): the EC50 is above 200 µM and the IC50 is 33.1 µM.

As for `N/N=C1\C(=O)N(c2ccc(Cl)c(Cl)c2)C(=O)C1C(=O)Nc1ccc(Cl)c(Cl)c1` (stereo unspecified), the EC50 was above 1.2 µM and the IC50 is above 1.2 µM.

For the compound `O=[N+]([O-])c1cccc(-c2ncc3c(n2)-c2ccccc2C3)c1`, the outcome was inactive.

With `O=[N+]([O-])C(/C=C(\Cl)n1nnc2ccccc21)=C(/Cl)n1nnc2ccccc21`, the EC50 was above 200 µM and the IC50 was above 200 µM.

With `O=C(c1ccccc1)N1CCN(C(=S)N(C(=O)c2ccccc2)c2ccccc2)C1=S`, the EC50 is above 200 µM and the concentration for half-maximal inhibition (IC50) was 3.72 µM.

Turning to `COC(=O)C(Cc1c[nH]c2ccccc12)NC(=O)C(Cc1c[nH]c2ccccc12)NC(=O)C(Cc1c[nH]c2ccccc12)NC(=O)C(Cc1c[nH]c2ccccc12)NC(=O)C(Cc1c[nH]c2ccccc12)NC(=O)C(Cc1c[nH]c2ccccc12)NC(=O)C(Cc1c[nH]c2ccccc12)NC(=O)OC(C)(C)C` (stereo unspecified) (Boc-WWWWWWW-OMe; configuration not given here), the EC50 was above 100 µM and the IC50 is 58.9 µM.

Turning to `CCCCn1c(-c2ccc(Cl)cc2)cs/c1=N\Nc1nc2c(c(=O)n(C)c(=O)n2C)n1C`, the EC50 was above 33.1 µM and the IC50 came to 11 µM.

Turning to `COc1cc(C2C(Cl)C(=O)N2NC(=O)c2ccc(N)cc2)ccc1O` (stereo unspecified), the EC50 is above 200 µM and the IC50 amounted to 53.7 µM.

Turning to `O=C1NC(N2CCOCC2)=N/C1=C\c1ccco1`, the EC50 is above 200 µM and the IC50 is above 200 µM.

Regarding `CCOCCOCCCNCC(=O)N1CCN(C(=O)CNCCCOCCOCC)CC1`, the outcome was inactive.

Turning to `CCOC(=O)c1cn(CC)c(=O)n2c1nc1ccccc12`, the EC50 is above 200 µM and the IC50 stood at 117 µM.

As for `CCOC(=O)C(NC(=O)c1ccccc1)(Nc1ccc(S(=O)(=O)Nc2cc(C)on2)cc1)C(F)(F)F` (stereo unspecified), the EC50 is above 200 µM and the IC50 is above 200 µM.

As to `CC1(C)OC2[C@@H](CO[C@@]3([C@H]4OC(C)(C)O[C@@H]4CO)OC(C)(C)O[C@@H]23)O1` (stereo partly specified), the EC50 is above 200 µM and the IC50 was above 200 µM.

`CCOC(=O)C1(c2ccccc2)CCN(Cc2ccccc2)CC1`: the EC50 was above 100 µM and the IC50 amounted to 52.5 µM.

`CCSC(SCC)C(O)C(O)C(O)C(O)C(O)C(O)CO` (stereo unspecified): the outcome was inactive.

With `S=c1cc(-c2ccccc2)ss1`, the EC50 is above 200 µM; the IC50 was 38 µM and > 200 µM.

Consider `CN1C(=O)C2C(C1=O)[C@H]1c3ccccc3C=CN1[C@@H]2C(=O)c1ccccc1` (stereo partly specified), for which the EC50 is above 200 µM and the IC50 stood at 148 µM.

As for `CCCc1cc(=O)oc2c3c(c4c(c12)OC(C)(C)C(O)C4=O)O[C@@H](C)[C@H](C)[C@@H]3O` (stereo partly specified), the EC50 was above 200 µM and the IC50 worked out at 85.1 µM.

`Cc1nn(C(=O)Cc2ccccc2)c2c1C(c1ccc(Cl)cc1)SC(N)=N2` (stereo unspecified): the EC50 is 110 µM and the IC50 is 158 µM.

Turning to `CC1=C(c2cc(C(=O)Nc3cccc(C(F)(F)F)c3)ncn2)Sc2ccccc2N1`, the EC50 was above 83.2 µM and the IC50 was above 83.2 µM.

As for `CC(C)=CC[C@]12CCN[C@H]1N(S(=O)(=O)c1ccccc1)c1ccccc12`, the EC50 was above 200 µM and the IC50 amounted to 30.9 µM.

On to `COc1ccc(-c2nc3c(nc2-c2ccc(OC)cc2)N(C)S(=O)(=O)N=C3N)cc1`, for which the EC50 is above 200 µM and the IC50 amounted to 11.2 µM.

As for `CC(=O)OCC1OC(n2c(C)c(N=Nc3ccccc3)c(C)c(C#N)c2=S)C(OC(C)=O)C(OC(C)=O)C1OC(C)=O` (stereo unspecified), the EC50 was above 200 µM and the IC50 was above 200 µM.

Regarding `O=C1NCCCCC1CC/C=C/c1ccccc1` (stereo unspecified), the EC50 was above 148 µM and the IC50 turned out to be 95.5 µM.

Turning to `CCCCCCC(C)CCCCCCCCCCC(=O)OCC(COP(=O)([O-])OCC[N+](C)(C)C)OC(=O)CCCCCCCCCCC(C)CCCCCC` (stereo unspecified), the result was inactive.

On to `CC1=C(C(=O)CC(=O)C(=O)Nc2ccc(Cl)cc2C)Sc2ccccc2N1`, for which the EC50 is above 117 µM and the IC50 was above 117 µM.

Consider `CCOC(=O)C1=C(C)N(c2ccccc2)C2=C(C(=O)N(c3ccccc3)C2c2ccccc2)C1c1ccccc1` (stereo unspecified), for which the EC50 is above 67.6 µM and the IC50 is above 67.6 µM.

`N#CCCN(c1ccc(/C=C2\N=C(Cc3ccccc3)OC2=O)cc1)S(=O)(=O)c1ccccc1`: the EC50 was 240 µM and the IC50 was determined as 275 µM.

On to `C=C(CN(C)C)C(=O)c1ccc(OC)cc1`, for which the outcome was inactive.

Turning to `CCOP(=O)(OCC)/C(C#N)=C/c1cccc(C#N)c1`, the EC50 was above 617 µM and the IC50 worked out at 102 µM.

Take `O=CN/C=C\c1cc(O)ccc1O`: the EC50 is above 427 µM and the IC50 was found to be 5.25 µM.

Turning to `CCCCCCCCCCCC(=O)OCCNC(=O)C[n+]1ccccc1`, the EC50 was above 200 µM and the IC50 is above 200 µM.

On to `CCOCC(/C=N/N=C(N)N)=N\N=C(N)N`, for which the EC50 was above 759 µM and the IC50 was above 759 µM.

As to `COc1cc(/C=C2\SC(=S)N(/C=C/c3nc4ccccc4[nH]c3=O)C2=O)cc(OC)c1OC`, the EC50 is above 200 µM and the IC50 came out at 18.2 µM.

On to `CN(C)/N=C/c1cn(C)c(=O)n(C)c1=O`, for which the EC50 was above 200 µM and the IC50 is above 200 µM.

For the compound `Cc1ccc(-c2cc[n+]3c(n2)oc2ccccc23)cc1`, the EC50 was above 200 µM and the IC50 is 3.63 µM.

As for `CN1CCC23c4c5cc(-c6cc7c8c(c6O)OC6C(O)C=CC9C(C7)N(C)CCC896)c(O)c4OC2C(O)C=CC3C1C5` (stereo unspecified), the result was inactive.

With `C[C@@H]1CC(O)C2(O)[C@@]13C[C@@H](OC(=O)[C@@H]3O)[C@](C)(O)[C@@]21COC1=O` (stereo partly specified), the outcome was inactive.

`O=C(NC1CCCCC1NC(c1ccccc1)(c1ccccc1)c1ccccc1)C(=O)NC1CCCCC1NC(c1ccccc1)(c1ccccc1)c1ccccc1` (stereo unspecified): the EC50 was above 100 µM and the IC50 is above 100 µM.

`Cc1cc(C)cc(/C(C#N)=C/c2ccc(N(C)C)cc2)c1`: the EC50 was above 2 µM and the IC50 was found to be 0.102 µM.

For `Cc1c(C(=N)C(C#N)C#N)c(=N)oc2c1ccc1ccccc12`, the EC50 is above 200 µM and the IC50 came to 26.9 µM.

Take `O=C1C[C@@H]([C@H](NC(=O)OCc2ccccc2)C(=O)O)ON1`: the outcome was inactive.

Values taken from PubChem BioAssay AID179 (DTP/NCI, 2004).
